# According to paper PMC12522106 (Cancer Research Communications, 2025):
# Like-named read-outs stand apart in the source and are kept apart here.
# What was measured:
# [1] = test system: sarcospheres from canine patients with osteosarcoma; test: Resazurin metabolic activity of canine patient-derived sarcospheres; format: cell-based; conditions: for ED50: 48 hours, metabolic activity
# From the text: Osteosarcoma tissue was obtained during standard-of-care procedures (biopsies or resections) in human patients treated at Indiana University Health and Riley Children’s Hospital with Institutional Review Board approval (#1501467439). Tissue from canine patients with osteosarcoma was obtained from standard-of-care amputations at the Purdue University College of Veterinary Medicine and the Metropolitan Veterinary Hospital. Osteosarcoma diagnosis was confirmed by review of pathology reports. Demographic and clinical information for human and canine patients is in Table 1. Primary osteosarcoma cells were isolated by collagenase/mechanical dispersion using a modification of a previously described protocol ([35]). […] The tissue was rinsed with cold PBS (Cytiva, cat. #SH30028.02) and minced prior to incubation in 10 mL of culture media containing collagenase type II (750 units/mL with 13–18 units of clostripain/mL, Worthington, cat. #LS004176) for 3 hours at 37°C and 5% CO2. The media and tissue fragments were centrifuged at 200 g for 5 minutes. Pellets with a visible layer of red blood cells were then treated with 5 mL of ACK Lysing Buffer (Gibco, cat. #A10492-01) for 1 minute and then centrifuged at 200 g for 2 minutes. Pellets were resuspended in culture media, pipetted up and down 15 times to disperse tissue fragments, and centrifuged at 200 g for 5 minutes. Finally, any remaining tissue fragments were crushed with a 25-mL pipette and transferred with released cells and culture media to a 100-mm tissue culture dish and incubated at 37°C and 5% CO2. Media were changed every 3 days. When a confluence of ∼80% was reached, the cells were passaged to 150-mm dishes at 5,000 cells/cm^2. Aliquots of the patient-derived osteosarcoma cells were frozen in 10% DMSO (Sigma-Aldrich, D2650), 40% FBS (Cytiva, SH30071.03), and 50% culture media at second passage and stored in liquid nitrogen. The TT2-77 xenoline is a patient cell line that was isolated from a patient-derived xenograft (PDX) that was previously developed and characterized by the Pollok lab ([5]).
# The number of patient-derived cells required to obtain sarcospheres with 400-μm diameters was determined for each patient and varied from 1,000 to 15,000 cells per sarcosphere.
# Round-bottom 96-well plates were coated with 50 μL/well of 0.5% poly 2-hydroxyethyl methacrylate (Polysciences Inc., cat. #09689-25) in 100% ethanol and incubated at 37°C for 3 days before use to obtain a nonadherent surface. […] Highly metastatic osteosarcoma cells cultured in monolayers at 50% to 80% confluence were lifted with Accutase (Innovative Cell Technologies, Inc., cat. #NC9839010), resuspended in media, and diluted to the desired concentration.
# [2] = test system: LM7 sarcospheres; test: Sarcosphere resazurin metabolic activity (initial and secondary screens); format: cell-based, human; conditions: secondary screen; without MAP
# Experimental: Khanna DVM, PhD (NCI). […] Medium was sterile filtered before use.
# Highly metastatic osteosarcoma cells cultured in monolayers at 50% to 80% confluence were lifted with Accutase (Innovative Cell Technologies, Inc., cat. #NC9839010), resuspended in media, and diluted to the desired concentration. […] Following cell seeding, plates were centrifuged (1,000 g for 10 minutes at 4°C) and then incubated at 37°C with 5% CO2. […] Then, 100 μL drug treatment or vehicle was added to each well. […] Resazurin reduction on day 2 by vehicle-treated sarcospheres was compared with resazurin reduction on day 0 to calculate sarcosphere growth without drug over 2 days in selected experiments.
# Plates were incubated at 37°C in 5% CO2 for 2 or 6 hours.
# Sarcospheres were matured for 24 hours and then treated for 48 hours with media containing 10 µmol/L of each drug and 0.1% DMSO. […] Growth inhibition represents a more clinically translatable measure for screening studies in which a value of 0% represents stable disease since the start of treatment, values of 0% to 100% represent progression in which 100% is the untreated control, and values less than 0% represent regression in which −100% represents blank wells without sarcospheres.
# [3] = test system: 143B sarcospheres; test: Cell cycle analysis by flow cytometry (DAPI); format: cell-based, human; conditions: 10 nmol/L for 24 hours
# Experimental: (§1) Sarcospheres were washed with PBS to remove any media and then resuspended in Accumax Cell Detachment Solution ([…] Technologies, #07921) for 15 to 30 minutes. Sarcospheres were manually dissociated by pipetting up and down at least 10 times. Following dissociation, cells were fixed in Cytofix/Cytoperm (BD Cytofix/Cytoperm Fixation/Permeabilization Solution Kit, BDB554714) for 10 to 20 minutes at 4°C protected from light. Fixation solution was removed with two washes in sterile PBS. Cells were resuspended in PBS and stored for no more than 72 hours at 4°C. Cells were transferred to flow cytometry tubes for staining. For DAPI staining, 1 mg/mL DAPI (BD Pharmingen, #564907) was diluted 1000-fold in sterile PBS and 500 μL was added to the appropriate tubes containing an equal volume of cell suspension. Flow cytometry was performed using a BD LSRFortessa X-20 flow cytometer using a 407 laser. Cell cycle analysis was performed using the Watson model in FlowJo software (version 10.10.0).
# [4] = test system: LM7 sarcospheres; test: Cell cycle analysis by flow cytometry (DAPI); format: cell-based, human; conditions: 10 nmol/L for 24 hours
# Experimental: as §1
# [5] = test system: 143B sarcospheres; test: Sarcosphere size (Incucyte); format: cell-based, human; conditions: initial 48-hour observation period
# [6] = test system: LM7 sarcospheres; test: Sarcosphere size (Incucyte); format: cell-based, human; conditions: 48-hour period
# [7] = humans, cited from earlier work
# [8] = test system: LM7 cell–derived lung metastases; parameters: method as in PMID 32599665; conditions: administration continued for the entire 21-week observation period; cited from earlier work
# [9] = test system: subcutaneous xenograft models of osteosarcoma cell lines; conditions: cited from earlier work
# [10] = cited from earlier work
# [11] = test system: monolayers of either established osteosarcoma cell lines or PDX cell lines; parameters: method as in PMID 30395907, PMID 26601688, PMID 37457661, PMID 35411591; conditions: cited from earlier work
smiles,measurement,setting,value
C/C=C1\NC(=O)[C@H]2CSSCC/C=C/[C@H](CC(=O)N[C@H](C(C)C)C(=O)N2)OC(=O)[C@H](C(C)C)NC1=O [romidepsin],share of canine patient samples whose sarcospheres responded,[1]; ED50s <70 nmol/L,50%
same,ED50,[1]; canine patient sample MVHcOS001 (romidepsin resistant),">1,000 nmol/L"
same,ED50,[1]; canine patient sample MVHcOS002 (romidepsin resistant),">1,000 nmol/L"
same,ED50,[1]; canine patient sample MVHcOS003 (romidepsin sensitive),22 nmol/L
same,ED50,[1]; canine patient sample MVHcOS004 (romidepsin sensitive),6 nmol/L
same,ED50,[1]; canine patient sample MVHcOS005 (romidepsin resistant),">1,000 nmol/L"
same,ED50,[1]; canine patient sample MVHcOS006 (romidepsin resistant),">1,000 nmol/L"
same,ED50,[1]; canine patient sample PUcOS001 (romidepsin sensitive),65 nmol/L
same,ED50,[1]; canine patient sample PUcOS002 (romidepsin sensitive),46 nmol/L
same,ED50,[1]; canine patient sample PUcOS003 (romidepsin resistant),">1,000 nmol/L"
same,ED50,[1]; canine patient sample PUcOS004 (romidepsin sensitive),57 nmol/L
same,rank of ED50 among the 13 drugs,[2],lowest ED50
same,cell cycle block,[3],induced a G2–M cell cycle block
same,proportion of sub-G1 cells,[3],without altering the proportion of sub-G1 cells
same,cell cycle block,[4],without inducing a cell cycle block
same,proportion of sub-G1 cells,[4],increased the proportion of sub-G1 cells
same,effect on sarcosphere size,[5],inhibited the increase in size
same,effect on sarcosphere size,[6],did not alter size
same,Cmax,[7],~700 nM
same,Cmax,[7]; listed as Romidepsin,700 nM
same,growth of lung metastases,[8],prevented
same,tumor response,[9]; mice followed for 1 week after discontinuation,tumors regressed
same,response after discontinuation,[9]; mice followed for 6 weeks after discontinuation,did not induce a sustained response
same,growth of well-established subcutaneous xenografts,[9]; small number of mice,inhibited growth
same,most common severe adverse events,[10],thrombocytopenia and neutropenia
same,most common side effect,[10],Nausea
same,severe toxicities,[10],few severe toxicities
same,most concerning potential side effect,"[10]; reported in humans, rats, and beagle dogs",cardiac toxicity
same,standing in four independent screens,[11],among the top hits
